Measured values published in PMC8001783, “New Lignanamides with Antioxidant and Anti-Inflammatory Activities Screened Out and Identified from Warburgia ugandensis Combining Affinity Ultrafiltration LC-MS with SOD and XOD Enzymes” (Antioxidants, 2021).
Values joined by “and” are separate entries in the source; they are usually repeats but may differ in a detail not shown here. Equal values may be shown once. Marks after values point to notes of the source that are not given here.

How the values were obtained:
[1] = Ferric reducing antioxidant power (FRAP) assay; conditions: for FRAP value: 37 °C, 10 min, 593 nm, n = 3
Description: The ferric reducing antioxidant power assays on different extracts and pure compounds of stem barks from W. ugandensis were tested according to previous studies with slight modifications. Firstly, freshly prepared FRAP reagent (Fe^3+-TPTZ solution) was composed of FeCl3∙6H2O (20 mM in H2O), TPTZ (10 mM in 40 mM HCl), and acetate buffer (300 mM, pH = 3.6) at a ratio of 1:1:10 (v/v/v), then incubated at 37 °C after preparation, and used within 1–2 h. Secondly, 10 µL of appropriately diluted solution of samples was added to the 190 µL freshly prepared FRAP reagent in 96-well plate. Thirdly, the mixtures were gently shaken and put at 37 °C for 10 min. Finally, the absorbance was recorded at 593 nm with multifunctional microplate reader. Trolox was used as a positive control, and MeOH was used as blank control. Each of the samples and controls were tested in triplicate (n = 3). The antioxidant activities of FRAP were expressed as FRAP values and TEAC values. The FRAP values were calculated and expressed as millimoles of Fe^2+ equivalents per gram of sample (mmol Fe^2+/g) based on a calibration curve plotted using FeSO4∙7H2O as standard at a concentration ranging from 0.0185 to 1.5 mM.

[2] = system: superoxide dismutase (SOD); test: Affinity ultrafiltration LC-MS/MS with SOD (relative binding affinity); parameters: key: -: No binding affinity; conditions: peaks of WUE-A4, SOD 2 U, 37 °C 1 h, n = 3
Description: The experimental conditions were proposed according to previous relevant studies. Briefly, the optimized experiment was composed of three steps. Incubation was the first step, where 100 μL WUE-A4 (10.0 mg/mL), 10 µL SOD (2 U) or XOD (2 U), and 90 µL Tris-HCl (pH = 7.8) were mixed well in 1.5 mL EP tubes, and then incubated at 37 °C in the dark for 1 h. Meanwhile, the incubation operations of inactivated enzymes (inactivated enzymes were obtained by heating enzymes in a 99 °C water bath for 10 min) were the same as the active enzymes. Adsorption was the second step, where the incubated solutions were transferred to ultrafiltration tubes with 30 KDa (for SOD) or 10 KDa (for XOD) ultrafiltration membranes and then centrifuged at 10,000 rpm for 10 min at 25 °C. Simultaneously, components which had no binding affinity to enzymes were washed out. Immediately, 300 µL of Tris-HCl solution (pH = 7.8) was added to the ultrafiltration tubes and centrifuged at 10,000 rpm for 5 min at 25 °C to remove the potential unbound components. Desorption was the third step, where 300 µL of 90% (v/v) MeOH-H2O was added and incubated for 10 min at room temperature, and the mixed solutions were centrifuged at 10,000 rpm for another 10 min at 25 °C. After that, the desorption process was repeated two times to release those components with specific bindings to SOD or XOD from the enzyme-ligand complexes. Finally, those ultrafiltrates were dried and reconstituted in 50 µL MeOH for the HPLC-UV/ESI-MS/MS analysis.
HPLC-UV/ESI-MS/MS was carried out to characterize the components in WUE-A4 before and after ultrafiltration by using a Thermo Accela 600 series HPLC connected with a TSQ Quantum Access MAX mass spectrometer (Thermo Fisher Scientific, San Jose, CA, USA). A Waters Symmetry RP-C18 column (4.6 × 250 mm, 5 µm) was used to perform chromatographic analysis at 30 °C, and the mobile phase consisted of H2O with 0.1% formic acid (A) and ACN (B). The optimized HPLC elution procedures were as follows: 0–15 min, 17% B; 15–40 min, 17–30% B, 40–42 min: 30–56% B. The flow rate was 0.8 mL/min, the injection volume was 10 µL, and the HPLC-UV chromatograms were detected at a wavelength of 254 nm. The negative ion modes were applied to obtained ESI-MS/MS data. Moreover, the parameters of instrument were set as follows: the vaporizer temperature was 350 °C, the capillary temperature was 250 °C, the spray voltage was 3000 V, the cone voltage energy was 40 V, the collision energy was 10 V, the sheath gas pressure was 40 psi, the aux gas pressure was 10 psi, the drying gas flow rate was 6.0 L/min, and the mass range was set from 50 to 1100 (m/z) in the full-scan mode. Finally, the Thermo Xcalibur ChemStation (Thermo Fisher Scientific) was used for data acquisition and analysis.
For further evaluation of the affinity binding strength between the potential ligands and the target enzymes, the relative binding affinity (RBA) was employed to compare the variation of the correlated peak areas in the UF-HPLC-UV chromatograms before and after activation. The RBA formula is expressed as RBA = Aactive/Ainactivated, where the Aactive and Ainactivated represent the peak areas obtained from the WUE-A4 samples with activated and inactivated SOD or XOD, respectively.

[3] = ABTS free radical scavenging assay; conditions: pure compounds; 30 min, 734 nm, n = 3
Description: The ABTS free radical scavenging activities of extracts and pure compounds from stem barks of W. ugandensis were tested according to previous studies with slight modifications. ABTS^+ solution was prepared by mixing equal volumes of potassium persulfate (4.9 mM in H2O) and ABTS (7.0 mM in H2O) and then incubated for 12 h in the darkness. The prepared ABTS^+ solution was diluted with MeOH to ensure an absorbance value about 0.700 ± 0.005 at 734 nm. Firstly, 10 µL of appropriately diluted solution of samples was added to the 190 µL ABTS^+ solution in 96-well plate. Secondly, the mixtures were gently shaken and put at room temperature for 30 min in the darkness. Finally, the absorbance was recorded at 734 nm with multifunctional microplate reader. Trolox was used as positive control, and MeOH was used as blank control. Samples and controls were tested in triplicate (n = 3). The antioxidant activities of ABTS were expressed as IC50 and TEAC values. The inhibition of the ABTS radicals was calculated according to the following formula:ABTS scavenging activity (%) = (1 − absorbance of sample/absorbance of blank control) × 100,(2) where ABTS scavenging activities (%) were plotted against the concentration of samples to acquire the IC50.

[4] = DPPH free radical scavenging assay; conditions: pure compounds; 30 min, 517 nm, n = 3
Description: The DPPH free radical scavenging activities of extracts and pure compounds from stem barks of W. ugandensis were tested according to previous studies with slight modifications. Firstly, 10 µL solutions of the samples, appropriately diluted with MeOH, were homogeneously mixed with 190 µL solution of DPPH (0.1 mM in MeOH) in a 96-well plate. Secondly, the mixtures were gently shaken and put at room temperature for 30 min in the darkness. Finally, the absorbance was recorded at 517 nm with multifunctional microplate reader. Trolox was used as positive control, and MeOH was used as blank control. Each of the samples and controls were tested in triplicate (n = 3). The antioxidant activities of DPPH were expressed as IC50 (concentration of samples caused 50% inhibition) and TEAC values. The TEAC values were calculated from the standard curve of Trolox and expressed as millimoles of Trolox equivalents per gram of sample (mmol TE/g). The inhibition of the DPPH radical was calculated according to the following formula:DPPH scavenging activity (%) = (1 − absorbance of sample/absorbance of blank control) × 100,(1) where DPPH scavenging activities (%) were plotted against the concentration of samples to obtain the IC50.

For “1-(3,4-dihydroxy-5-methoxyphenyl)-1,2-dihydroxy-7,8-dihydroxy-N-[(3,4-dihydroxyphenyl)-ethyl]-N′-[(4-hydroxyphenyl)-ethyl]-6-methoxynaphthalene-2,3-dicarboxamide [compound 11]”, the FRAP value [1] was 2.2 ± 0.1 ^c mmol Fe^2+/g, the “UF-RBA SOD (relative binding affinity = Aactive/Ainactivated)” value [2] was “-” and the “UF-RBA SOD (relative binding affinity = Aactive/Ainactivated)” value ([2]; listed as peak 11) was “extremely low or no binding affinities”. The IC50 [3] was 80 ± 10.3 µM and the IC50 [4] was 59.1 ± 4.1 µM.

For `C[C@@H]1O[C@@H](O[C@@H]2[C@@H](O)[C@H](O)[C@@H](CO)O[C@H]2c2cc(-c3cc(=O)c4c(O)cc(O)cc4o3)cc(O)c2O)[C@H](O)[C@H](O)[C@H]1O` [compound 1, 2-[3-[2-O-(6-deoxy-α-L-mannopyranosyl)-β-D-glucopyranosyl]-4,5-dihydroxyphenyl]-5,7-dihydroxy-4H-1-benzopyran-4-one], the FRAP value [1] was 5.4 ± 0.7 ^b mmol Fe^2+/g, the “UF-RBA SOD (relative binding affinity = Aactive/Ainactivated)” value [2] was 1.9 ± 0.1 ^a,b,c and the “UF-RBA SOD (relative binding affinity = Aactive/Ainactivated)” value ([2]; listed as peak 1) was 1.93. The IC50 [3] was 62.5 ± 4.2 µM and the IC50 [4] was 25.8 ± 1.4 µM.

With `O=C(/C=C/c1ccc(O)c(O)c1)NCCc1ccc(O)cc1` [compound 7, N-trans-caffeoyltyramine] the FRAP value [1] was 1.9 ± 0.1 ^c mmol Fe^2+/g, the “UF-RBA SOD (relative binding affinity = Aactive/Ainactivated)” value [2] was 1.1 ± 0.3 ^e and the IC50 [3] was 463 ± 157 µM. For the same molecule, the IC50 [4] was 636 ± 290 µM.

For `COc1cc(C2c3c(cc(OC)c(O)c3O)C=C(C(=O)NCCc3ccc(O)cc3)C2C(=O)NCCc2ccc(O)cc2)cc(O)c1O` (stereo not drawn) [compound 13], the FRAP value [1] was 1.3 ± 0.2 ^c mmol Fe^2+/g, the “UF-RBA SOD (relative binding affinity = Aactive/Ainactivated)” value [2] was 1.3 ± 0.1 ^e and the IC50 [3] was 69.8 ± 6.3 µM. It also gave an IC50 [4] of 115 ± 20.8 µM.

For `COc1cc(C2c3c(cc(O)c(O)c3OC)C=C(C(=O)NCCc3ccc(O)cc3)C2C(=O)NCCc2ccc(O)cc2)cc(O)c1O` (stereo not drawn) [compound 14], the “total ferric-reducing antioxidant power (FRAP)” value [1] was 17.488 ± 1.625 mmol Fe^2+/g, the FRAP value [1] was 17.488 ± 1.625 mmol Fe^2+/g and 17.5 ± 1.6 ^a mmol Fe^2+/g and the “UF-RBA SOD (relative binding affinity = Aactive/Ainactivated)” value [2] was 1.5 ± 0.1 ^c,d,e. The “UF-RBA SOD (relative binding affinity = Aactive/Ainactivated)” value ([2]; listed as peak 14) was 1.51, the IC50 [3] was 5.38 µM and 5.4 µM and the IC50 [4] was 6.41 µM and 6.4 µM.
